In patent US20140106421A1, “Methods Of Producing Carboxylic Acids And/Or Alcohols” (Industrial Technology Research Institute, priority 2012, published 2014):

Experiments:
[1] = system: PVA-immobilized clostridium tyrobutyricum; test: Extractive fermentation-column reactor, 1 M TOPO or TBP in oleyl alcohol (Example 4C); type: cell-based; details: 1 M extractant in oleyl alcohol as organic phase; 37° C., 100 hours
Method: In addition, the upper region of the reactor was filled with either 40 ml of 1 M TOPO in oleyl alcohol or 40 ml 1 M TBP in oleyl alcohol. The fermentation was conducted at 37° C. for 100 hours.

[2] = Extraction of butyric acid from CGM medium with TOPO in oleyl alcohol (Example 1.2); type: physicochemical; details: 24 hours, 37° C.
Method: The butyric acid distribution ratio (D) was calculated by dividing the concentration of butyric acid in the organic medium by the concentration of butyric acid in the aqueous medium:
[…] The pH of the culture medium was further adjusted to a value ranging from 4 to 6 with 4 N NaOH and 4 N HCl.
After 24 hours, the concentrations of butyric acid in the CGM culture medium (the aqueous phase) and in the TOPO solution (the organic phase) were measured by HPLC.

[3] = Extraction of butyric acid from CGM medium with TOA in oleyl alcohol (Example 1.1); type: physicochemical; details: CGM medium with 5% butyric acid, pH 4, 37° C.
Method: 50 ml of CGM culture medium (basal medium, see the table provided immediately below) containing 5% of butyric acid (the pH of the CGM medium decreased to 4 after the addition of the butyric acid) was mixed with 5 ml of 0.7 M, 1 M, […] of trioctylamine (C24H51N, CAS No. 1116-76-3, abbreviation: TOA) in oleyl alcohol at 37° C.
The concentrations of butyric acid in the CGM culture medium (i.e., the aqueous phase) and in the trioctylamine solution (i.e., the organic phase) were measured every 12 hours by high performance liquid chromatography (HPLC).
The butyric acid distribution ratio (D) was calculated by dividing the concentration of butyric acid in the organic medium by the concentration of butyric acid in the aqueous medium: […]

[4] = system: PVA-immobilized clostridium tyrobutyricum; test: 2-liter tank fermentor extractive fermentation (Example 5); type: cell-based; details: 37° C., 40 hours
From the text: A 2-liter tank fermentor 500 as illustrated in FIG. 5 was used in this Example. […] The medium was then purged with N2 to reach anaerobiosis. The pH of the basal medium was further adjusted to 6.0 with 2 N NaOH. Subsequently, the medium was inoculated with about 100 g of PVA-immobilized C. tyrobutyricum cell beads prepared as described above. An extractive fermentation-column reactor similar to the one shown in FIG. 5 was used in this example. The lower region of the reactor was filled with 700 ml of the basal medium containing glucose as the substrate and inoculated with about 70 ml of PVA-immobilized clostridium tyrobutyricum. In addition, the upper region of the reactor was filled with either 700 ml of 1 M TOPO in oleyl alcohol or 700 ml of oleyl alcohol without TOPO. The fermentation was conducted at 37° C. for 40 hours, and the pH of the fermentation medium was not controlled in this example.

[5] = system: C. tyrobutyricum ATCC25755; test: Free-cell culture with organic solution on top of the culture medium (Example 2); type: cell-based; details: free cells, 24 hours at 37° C.
Method: The culture medium was then inoculated with 0.08 ml of bacterial stock comprising C. tyrobutyricum ATCC25755. The initial optical density (OD) measured at a wavelength of 600 nm was 0.2. After inoculation, 0.8 ml of an organic solution (as listed in the Table 4 below) was added to the top of the culture medium. The bacteria was then cultured in Tecan infinite 200 Pro Multimode Microplate Readers (Tecan Group Ltd., Switzerland) for 24 hours at 37° C., with shaking once every 30 minutes.

Q: What does the source list for `CCCCCCCCP(=O)(CCCCCCCC)CCCCCCCC` [TOPO, trioctylphosphine oxide]?
A: Cells growth (Δ OD600) [1]: 6.0; butyric acid distribution ratio ([2]; TOPO 0.1 M in oleyl alcohol, butyric acid 1%, pH 4): 1.45; butyric acid distribution ratio ([2]; TOPO 0.1 M in oleyl alcohol, butyric acid 1%, pH 5): 0.31; butyric acid distribution ratio ([2]; TOPO 0.1 M in oleyl alcohol, butyric acid 1%, pH 6): 0.00; butyric acid distribution ratio ([2]; TOPO 0.1 M in oleyl alcohol, butyric acid 2%, pH 4): 2.12; butyric acid distribution ratio ([2]; TOPO 0.1 M in oleyl alcohol, butyric acid 2%, pH 5): 0.37; butyric acid distribution ratio ([2]; TOPO 0.1 M in oleyl alcohol, butyric acid 2%, pH 6): 0.05; butyric acid distribution ratio ([2]; TOPO 0.1 M in oleyl alcohol, butyric acid 3%, pH 4): 2.17; butyric acid distribution ratio ([2]; TOPO 0.1 M in oleyl alcohol, butyric acid 3%, pH 5): 0.26; butyric acid distribution ratio ([2]; TOPO 0.1 M in oleyl alcohol, butyric acid 3%, pH 6): 0.00; butyric acid distribution ratio ([2]; TOPO 0.5 M in oleyl alcohol, butyric acid 1%, pH 4): 1.91; butyric acid distribution ratio ([2]; TOPO 0.5 M in oleyl alcohol, butyric acid 1%, pH 5): 0.36; butyric acid distribution ratio ([2]; TOPO 0.5 M in oleyl alcohol, butyric acid 1%, pH 6): 0.03; butyric acid distribution ratio ([2]; TOPO 0.5 M in oleyl alcohol, butyric acid 2%, pH 4): 2.82; butyric acid distribution ratio ([2]; TOPO 0.5 M in oleyl alcohol, butyric acid 2%, pH 5): 0.37; butyric acid distribution ratio ([2]; TOPO 0.5 M in oleyl alcohol, butyric acid 2%, pH 6): 0.06; butyric acid distribution ratio ([2]; TOPO 0.5 M in oleyl alcohol, butyric acid 3%, pH 4): 2.90; butyric acid distribution ratio ([2]; TOPO 0.5 M in oleyl alcohol, butyric acid 3%, pH 5): 0.35; butyric acid distribution ratio ([2]; TOPO 0.5 M in oleyl alcohol, butyric acid 3%, pH 6): 0.04; butyric acid distribution ratio ([2]; TOPO 1 M in oleyl alcohol, butyric acid 1%, pH 4): 2.67; butyric acid distribution ratio ([2]; TOPO 1 M in oleyl alcohol, butyric acid 1%, pH 5): 0.42; butyric acid distribution ratio ([2]; TOPO 1 M in oleyl alcohol, butyric acid 1%, pH 6): 0.06; butyric acid distribution ratio ([2]; TOPO 1 M in oleyl alcohol, butyric acid 2%, pH 4): 3.88; butyric acid distribution ratio ([2]; TOPO 1 M in oleyl alcohol, butyric acid 2%, pH 5): 0.43; butyric acid distribution ratio ([2]; TOPO 1 M in oleyl alcohol, butyric acid 2%, pH 6): 0.04; butyric acid distribution ratio ([2]; TOPO 1 M in oleyl alcohol, butyric acid 3%, pH 4): 4.20; butyric acid distribution ratio ([2]; TOPO 1 M in oleyl alcohol, butyric acid 3%, pH 5): 0.35; butyric acid distribution ratio ([2]; TOPO 1 M in oleyl alcohol, butyric acid 3%, pH 6): 0.04

Q: What does the source list for `CCCCCCCCN(CCCCCCCC)CCCCCCCC` [TOA, trioctylamine]?
A: Butyric acid distribution ratio (D) ([3]; 0.7M TOA in oleyl alcohol): 7.38; Butyric acid distribution ratio (D) ([3]; 1M TOA in oleyl alcohol): 10.21; Butyric acid distribution ratio (D) ([3]; 1.4M TOA in oleyl alcohol): 13.82

Q: Which results are given for `CCCCCCCC/C=C\CCCCCCCCO` [Oleyl alcohol only, oleyl alcohol]?
A: % of glucose consumed [4]: 100%; Distribution ratio of butryic acid [4]: 0.86; Glucose consumption rate % [5]: 80.7%; Bacterial Growth rate (OD/h) ([5]; OD at 600 nm): 0.08 OD/h
